Reference: ChEMBL document CHEMBL3351469, “Structure-activity relationships (SAR) and structure-kinetic relationships (SKR) of bicyclic heteroaromatic acetic acids as potent CRTh2 antagonists III: the role of a hydrogen-bond acceptor in long receptor residence times” (Bioorg Med Chem Lett, 2014)
Blank lines part the entries; values can stand above or below the compound they belong to.

Columns and labels:
[1] = molecular target: T1, Prostaglandin D2 receptor 2 (Homo sapiens, UniProt Q9Y5Y4); assay: Antagonist activity at CRTh2 (unknown origin) stably expressed in PGD2-stimulated CHO.K1 cells preincubated for 1 hr by radio-labelled [35S]-GTPgammaS binding assay; type: functional, cell-based
T1 sequence (Q9Y5Y4 whole entry): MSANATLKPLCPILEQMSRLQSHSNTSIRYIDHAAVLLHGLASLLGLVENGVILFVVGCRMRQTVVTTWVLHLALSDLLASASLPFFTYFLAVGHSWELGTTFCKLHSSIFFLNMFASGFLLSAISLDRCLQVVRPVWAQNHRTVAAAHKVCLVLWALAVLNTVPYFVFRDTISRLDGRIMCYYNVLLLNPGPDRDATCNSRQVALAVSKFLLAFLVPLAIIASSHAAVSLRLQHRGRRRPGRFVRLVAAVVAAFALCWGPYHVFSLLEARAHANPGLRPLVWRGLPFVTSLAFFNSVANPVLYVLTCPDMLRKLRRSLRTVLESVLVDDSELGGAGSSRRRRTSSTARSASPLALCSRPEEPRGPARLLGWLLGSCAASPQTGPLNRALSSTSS

[2] = molecular target: T2, Prostaglandin D2 receptor 2 (Homo sapiens) (UniProt Q9Y5Y4); details: CHO.K1
T2 sequence (whole entry): T1 sequence (Q9Y5Y4 whole entry)
Description: Antagonist activity at CRTh2 (unknown origin) stably expressed in PGD2-stimulated CHO.K1 cells assessed as dissociation half-life at 10 times IC50 after 1 hr preincubation by radio-labelled [35S]-GTPgammaS binding assay

[3] = molecular target: T2, Prostaglandin D2 receptor 2 (Homo sapiens); assay: Antagonist activity at CRTh2 (unknown origin) stably expressed in PGD2-stimulated CHO.K1 cells assessed as dissociation half-life at 10 times IC50 after 1 hr preincubation measured at 28 hrs after washout by radio-labelled [35S]-GTPgammaS binding assay; type: functional, cell-based

Structure (SMILES): Cc1noc(C2CC2)c1Cc1cc(C(F)(F)F)ccc1-c1cn(CC(=O)O)c2ccc(C(F)(F)F)nc12
IC50 ([1]; read-out: IC50): 23 nM
T1/2 [2]: 25 h

Structure (SMILES): Cc1ccc2c(CC(=O)O)cn(-c3ccc(Cl)cc3Cc3cc(C)nn3C)c2n1
IC50 ([1]; cho.k1): Not Active

Structure (SMILES): Cc1noc(C2CC2)c1Cc1cc(C(F)(F)F)ccc1-c1cn(CC(=O)O)c2ccc(F)cc12
IC50 ([1]; read-out: IC50): 37 nM
T1/2 [2]: 8 h

Structure (SMILES): COc1ccc(CC(=O)O)cc1-c1ccc(C(F)(F)F)cc1Cn1c(C)nnc1C1CC1
IC50 ([1]; read-out: IC50): 27 nM
T1/2 [2]: 1.5 h

Structure (SMILES): CCN(Cc1cc(C(F)(F)F)ccc1-c1cc(CC(=O)O)ccc1OC)C(=O)C1CC1
IC50 ([1]; read-out: IC50): 14 nM
T1/2 [2]: 2 h

Structure (SMILES): Cc1ccc(-n2cc(CC(=O)O)c3ccc(C)nc32)c(Cn2nncc2C)c1
IC50 ([1]; read-out: IC50): 150 nM

Structure (SMILES): O=C(O)Cn1cc(-c2ccc(C(F)(F)F)cc2Cc2ocnc2C2CC2)c2cc(F)ccc21
IC50 ([1]; read-out: IC50): 2600 nM

Structure (SMILES): Cc1ccn2c(CC(=O)O)cc(-c3ccc(C(F)(F)F)cc3Cc3c(C)noc3C3CC3)c2n1
IC50 ([1]; read-out: IC50): 5 nM
T1/2 [2]: 12 h

Structure (SMILES): Cc1nnc(C2CC2)n1Cc1cc(C(F)(F)F)ccc1-n1cc(CC(=O)O)c2ccc(F)cc21
IC50 ([1]; read-out: IC50): 9 nM
T1/2 [2]: 16 h

Structure (SMILES): Cc1ccc2c(n1)c(-c1ccc(C(F)(F)F)cc1Cc1c(C)noc1C)cn2CC(=O)O
IC50 ([1]; read-out: IC50): 5 nM
T1/2 [2]: 5 h

Structure (SMILES): Cc1ccc(-n2cc(CC(=O)O)c3ccc(C)nc32)c(Cn2c(C)nnc2C)c1
IC50 ([1]; read-out: IC50): 16 nM
T1/2 [2]: 9 h

Structure (SMILES): Cc1ccc2c(CC(=O)O)cn(-c3ccc(F)cc3Cc3c(C)cnn3C)c2n1
IC50 ([1]; read-out: IC50): 10 nM
T1/2 [2]: 1.2 h

Structure (SMILES): Cc1ccc2c(CC(=O)O)cn(-c3ccc(Cl)cc3Cn3c(C)nnc3C3CC3)c2n1
IC50 ([1]; read-out: IC50): 56 nM
T1/2 [2]: 20 h

Structure (SMILES): Cc1ccc2c(CC(=O)O)cn(-c3ccc(C(F)(F)F)cc3Cc3c(C)noc3C3CC3)c2n1
IC50 ([1]; read-out: IC50): 1 nM
T1/2 [2]: 13 h

Structure (SMILES): Cc1noc(C)c1-c1cccc(-c2c(C)n(CC(=O)O)c3ccc(F)cc23)c1
IC50 ([1]; read-out: IC50): 6 nM
T1/2 [2]: 18 h

Structure (SMILES): Cc1ccc2c(CC(=O)O)cn(-c3ccc(F)cc3Cc3c(C)noc3C)c2n1
IC50 ([1]; read-out: IC50): 2 nM
T1/2 [2]: 3 h

Structure (SMILES): Cc1c(-c2cccc3c2CCN(S(C)(=O)=O)C3)c2cc(F)ccc2n1CC(=O)O
IC50 ([1]; read-out: IC50): 4 nM
T1/2 [2]: 1.7 h

Structure (SMILES): Cc1ccc2c(CC(=O)O)cn(-c3ccc(C(F)(F)F)cc3Cc3c(C4CC4)noc3C3CC3)c2n1
IC50 ([1]; read-out: IC50): 3 nM
T1/2 [2]: 23 h

Structure (SMILES): COc1ccc(CC(=O)O)cc1-c1ccc(C(F)(F)F)cc1Cn1ccccc1=O
IC50 ([1]; cho.k1): Not Active

Structure (SMILES): Cc1ccc2c(CC(=O)O)cn(-c3ccc(C(F)(F)F)cc3CSC(C)(C)C)c2n1
IC50 ([1]; cho.k1): Not Active

Structure (SMILES): Cc1ccc2c(CC(=O)O)cn(-c3ccc(Cl)cc3Cc3cncnc3C(C)C)c2n1
IC50 ([1]; read-out: IC50): 170 nM

Structure (SMILES): Cc1ccc2c(CC(=O)O)cn(-c3ccc(Cl)cc3Cc3c(C4CC4)noc3C3CC3)c2n1
IC50 ([1]; read-out: IC50): 6 nM
T1/2 [2]: 22 h

Structure (SMILES): Cc1cnn(C)c1Cc1cc(C(F)(F)F)ccc1-c1cn(CC(=O)O)c2ccc(F)cc12
IC50 ([1]; read-out: IC50): 64 nM
T1/2 [2]: 2.5 h

Structure (SMILES): Cc1ccc2c(CC(=O)O)cn(-c3ccc(F)cc3Cc3c(C)noc3C3CC3)c2n1
IC50 ([1]; read-out: IC50): 2 nM
T1/2 [2]: 6 h

Structure (SMILES): Cc1noc(C)c1Cc1cc(C(F)(F)F)ccc1-c1cn(CC(=O)O)c2ccc(F)cc12
IC50 ([1]; read-out: IC50): 20 nM
T1/2 [2]: 10 h

Structure (SMILES): Cc1nnc(C2CC2)n1Cc1cc(C(F)(F)F)ccc1-c1cn(CC(=O)O)c2ccc(F)cc12
IC50 ([1]; read-out: IC50): 6 nM
T1/2 [2]: 20 h

Structure (SMILES): Cc1noc(C2CC2)c1Cc1cc(F)ccc1-c1cn(CC(=O)O)c2ccc(C(F)(F)F)cc12
IC50 ([1]; read-out: IC50): 37 nM
T1/2 [2]: 27 h

Structure (SMILES): Cc1ccc2c(CC(=O)O)cc(-c3ccc(C(F)(F)F)cc3Cc3c(C)noc3C3CC3)n2n1
IC50 ([1]; read-out: IC50): 3 nM
T1/2 [2]: 14 h

Second part, the compound after the results:

IC50 ([1]; read-out: IC50): 8 nM
T1/2 [2]: 11 h
Structure (SMILES): CCN(Cc1cc(C(=O)NCCc2ccccc2)ccc1-n1cc(CC(=O)O)c2ccc(C)nc21)C(=O)C1CC1

IC50 ([1]; cho.k1): Not Active
Structure (SMILES): Cc1ccc2c(CC(=O)O)cn(-c3ccccc3Cn3nc(C)nc3C)c2n1

IC50 ([1]; read-out: IC50): 580 nM
Structure (SMILES): Cc1ccc2c(CC(=O)O)cn(-c3ccccc3Cn3ccnc3)c2n1

IC50 ([1]; cho.k1): Not Active
Structure (SMILES): Cc1cn(Cc2ccccc2-n2cc(CC(=O)O)c3ccc(C)nc32)c(C)n1

IC50 ([1]; read-out: IC50): 1400 nM
Structure (SMILES): Cc1ccc2c(CC(=O)O)cn(-c3ccc(Cl)cc3Cc3cncnc3)c2n1

IC50 ([1]; read-out: IC50): 30 nM
T1/2 [2]: 1.2 h
Structure (SMILES): Cc1ccc(-n2cc(CC(=O)O)c3ccc(C)nc32)c(Cn2ccnc2-c2ccccc2)c1

IC50 ([1]; read-out: IC50): 51 nM
T1/2 [2]: 0.6 h
Structure (SMILES): CCCc1nc2ccccc2n1Cc1ccccc1-n1cc(CC(=O)O)c2ccc(C)nc21

IC50 ([1]; read-out: IC50): 7 nM
T1/2 [2]: 20 h
Structure (SMILES): Cc1ccc(-n2cc(CC(=O)O)c3ccc(Cc4ccccc4)nc32)c(Cn2c(C)nnc2C)c1

IC50 ([1]; read-out: IC50): 11 nM
T1/2 [2]: 26 h
Structure (SMILES): Cc1ccc2c(CC(=O)O)cn(-c3ccc(Cl)cc3Cn3c(C)nnc3Cc3ccccc3)c2n1

IC50 ([1]; read-out: IC50): 250 nM
Structure (SMILES): Cc1ccc(-n2cc(CC(=O)O)c3ccc(C)nc32)c(Cn2ccnc2C)c1

IC50 ([1]; read-out: IC50): 4 nM
T1/2 [2]: 10 h
Structure (SMILES): Cc1ccc(-n2cc(CC(=O)O)c3ccc(C)nc32)c(Cc2c(C)cnn2CC2CC2)c1

IC50 ([1]; read-out: IC50): 7 nM
T1/2 [3]: 42 h
Structure (SMILES): Cc1noc(C2CC2)c1Cc1cc(Cl)ccc1-n1cc(CC(=O)O)c2ccc(Cc3ccccc3)nc21

IC50 ([1]; read-out: IC50): 10 nM
T1/2 [2]: 6 h
Structure (SMILES): CCN(Cc1cc(C(F)(F)F)ccc1-n1cc(CC(=O)O)c2ccc(C)nc21)C(C)=O

IC50 ([1]; read-out: IC50): 9 nM
T1/2 [2]: 26 h
Structure (SMILES): Cc1ccc2c(CC(=O)O)cn(-c3ccc(Cl)cc3Cn3c(C)nnc3CCc3ccccc3)c2n1

IC50 ([1]; read-out: IC50): 3 nM
T1/2 [3]: 45 h
Structure (SMILES): Cc1ccc2c(CC(=O)O)cn(-c3ccc(Cl)cc3Cc3c(C)noc3Cc3ccccc3)c2n1

IC50 ([1]; read-out: IC50): 1800 nM
Structure (SMILES): Cc1ccc2c(CC(=O)O)cn(-c3ccccc3Cn3ccnn3)c2n1

IC50 ([1]; read-out: IC50): 1000 nM
Structure (SMILES): Cc1ccc(-n2cc(CC(=O)O)c3ccc(C)nc32)c(Cc2ccnn2Cc2ccccc2)c1
